Data on one molecule can be found in patent EP0405997B1, “Antibiotic agent” (Merck & Co., Inc., priority 1989, dated 1991).

Data set [1] is described as follows: Solubility in organic solvents. Type of data set: physicochemical. Conditions: methanol, ethanol, dimethylformamide, dimethyl sulfoxide, ethyl acetate and the like.
For data set [2], the system named is Candida albicans. Briefly: microbe, parasite or virus in culture. How it is done: (§1) In carrying out the assay, Compound I was solubilized in 10 percent dimethyl sulfoxide (DMSO) and diluted to 2560 µg/ml. The compounds were further diluted to 256 µg/ml in YNBD. Then 0.15 ml of the suspension was dispensed to the first row of a 96-well plate (each well containing 0.15 ml of YNDB) resulting in a drug concentration of 128 µg/ml. Two-fold dilutions were then made to obtain final drug concentrations ranging from 128 to 0.06 µg/ml.
(§2) The yeast cultures, maintained on Sabouraud dextrose agar were transferred to YM broth (Difco) and incubated overnight at 35°C with shaking (250 rpm). After incubation, each culture was diluted in sterile water to yield a final concentration of 1-5 x 10⁶ colony forming units (CFU)/ml.
(§3) 96-well microplates were inoculated using a MIC-2000 (Dynotech) which delivers 1.5 µl per well yielding a final inoculum per well of 1.5-7.5 x 10³ cells. The microplates were incubated at 35°C for 24 hours. The minimum inhibitory concentrations (MICs) were recorded as the lowest concentrations of drug showing no visible growth.
(§4) After recording the MIC, the plates were shaken to resuspend the cells. Thereafter, 1.5 µl samples from the wells in the 96-well microplate were transferred to a single well tray containing Sabouraud dextrose agar. The inoculated trays were incubated 24 hours at 28°C and then read. The MFC is defined as the lowest concentration of drug showing no growth or less than 4 colonies per spot.

Data set [3] concerns Candida parapsilosis. Briefly: microbe, parasite or virus in culture. How it is done:
as §1, §2, §3, §4

Data set [4] relates to Candida tropicalis. Kind of data set: microbe, parasite or virus in culture. Conditions: read-out: Minimum Fungicidal Concentration. How it is done: as §1, §2, §3, §4
Data set [5] relates to Pneumocystis carinii. To be noted: dexamethasone-immunosuppressed male C3H/Hej mice; 0.5 mg/kg intraperitoneally twice daily for two weeks; lung tissue.
Procedure: In a representative study ten male C3H/Hej mice, weighing 22-24 gms. each, were immunosuppressed by the addition of dexamethasone to the drinking water (8.0 mg/L) for six weeks to induce the development of P. carinii infections. To enhance the infection the mice were also maintained on a low protein diet. At the beginning of the seventh week the mice were divided into two groups. Both groups continued to receive dexamethasone in the drinking water and low protein diet for the remainder of the study. Mice in Group I were injected intraperitoneally twice daily with 0.5 ml of a 20% DMSO solution as a vehicle control. […] The treatment period lasted two weeks.
At the end of the treatment period (a total of eight weeks immunosuppression) the animals were sacrificed and the lung tissues removed. The tissue was then processed to determine the number of cysts for each animal.

SMILES strings stand for the structures. Values after ≈ are worked out from the molar mass of the structure shown. Where two headings read alike, the source gives them in different places. Numbered stars: 1 amine (or outer) side, 2 acyl side, 3 side chain; on linkers, the order of the positions; unused ones are H or OH. Bridge positions count the residues as written; N and C are the ends. Square brackets hold non-standard residues; d marks the D form. Peptide text beside a SMILES is read from it. * marks the point of attachment. Orn(4R-OH,5R-OH) = O=C([C@H](C[C@@H](O)[C@@H](O)N[*:3])N[*:1])[*:2]; Tetradecanoyl(10R,12S-Me2) = CC[C@H](C)C[C@H](C)CCCCCCCCC(=O)*; hTyr(3S-OH,4S-OH) = N[C@H](C(=O)O)[C@H](O)[C@@H](O)c1ccc(O)cc1; Gln(3R-OH) = NC(=O)C[C@@H](O)[C@H](N)C(=O)O; Pro(3S-OH) = O=C(O)[C@H]1NCC[C@@H]1O; Hyp = O=C(O)[C@@H]1C[C@@H](O)CN1

In the case of `CC[C@H](C)C[C@H](C)CCCCCCCCC(=O)N[C@H]1C[C@@H](O)[C@@H](O)NC(=O)[C@@H]2[C@@H](O)CCN2C(=O)[C@H]([C@H](O)CC(N)=O)NC(=O)[C@H]([C@H](O)[C@@H](O)c2ccc(O)cc2)NC(=O)[C@@H]2C[C@@H](O)CN2C(=O)[C@H]([C@@H](C)O)NC1=O` [Compound I, 1-[4,5-dihydroxy-N²-(10,12-dimethyl-1-oxotetradecyl)-ornithine]-5-(3-hydroxyglutamine)-6-(3-hydroxyproline)echinocandin B] ({Tetradecanoyl(10R,12S-Me2)}-[Orn(4R-OH,5R-OH)]T[Hyp][hTyr(3S-OH,4S-OH)][Gln(3R-OH)][Pro(3S-OH)]; lactam 1-C), in data set [1], the solubility entry is “soluble in organic solvents”. Besides, the MFC was 1 µg/mL (≈ 0.939 µM) in data set [2] (read-out: Minimum Fungicidal Concentration, Candida albicans MY 1028, YNBD medium); 0.5 µg/mL (≈ 0.469 µM) in data set [2] (read-out: Minimum Fungicidal Concentration, Candida albicans MY 1208, YNBD medium); 0.5 µg/mL (≈ 0.469 µM) in data set [2] (read-out: Minimum Fungicidal Concentration, Candida albicans MY 1585, YNBD medium); 0.25 µg/mL (≈ 0.235 µM) in data set [2] (read-out: Minimum Fungicidal Concentration, Candida albicans MY 1750, YNBD medium); 0.5 µg/mL (≈ 0.469 µM) in data set [2] (read-out: Minimum Fungicidal Concentration, Candida albicans MY 1783, YNBD medium); 8 µg/mL (≈ 7.51 µM) in data set [3] (Lodderomyces parapsilosis, read-out: Minimum Fungicidal Concentration). Besides, the MFC in data set [4] came to 2 µg/mL (≈ 1.88 µM). For the same molecule, the “Minimum Fungicidal Concentration” value in data set [3] (Candida parapsilosis MY 1010, YNBD medium) turned out to be 8.0 µg/mL. Besides, the “reduced the number of cysts as compared to the control animals” value in data set [5] was 81%.
